Experimental findings from patent publication US10730889B2, “Amido spirocyclic amide and sulfonamide derivatives” (Forma TM, LLC, priority 2012, dated 2020) are described below.

pIC50: −log10 of the molar value.

This test has as its system A2780 cells. Kind of test: In-vitro cell proliferation assay (SRB, 72 hours). It is filed as cell-based. Particulars: Homo sapiens, A2780, 72 h, A2780 cells, 72 hours, SRB; read-out: Cell Proliferation (IC50).

Consider `O=C(NCC1CC12CCN(C(=O)c1cc3ncccn3n1)CC2)c1cc2ccncc2o1` (stereo not drawn) [Example 313, N-[[6-(pyrazolo[1,5-a]pyrimidine-2-carbonyl)-6-azaspiro[2.5]octan-2-yl]methyl]furo[2,3-c]pyridine-2-carboxamide], for which the pIC50 is 7.80.
For `CCn1nc(C)c(C(=O)N2CCC3(CC2)CC3CNC(=O)c2cc3ccncc3o2)c1C` (stereo not drawn) [Example 314, N-[[6-(1-ethyl-3,5-dimethyl-pyrazole-4-carbonyl)-6-azaspiro[2.5]octan-2-yl]methyl]furo[2,3-c]pyridine-2-carboxamide], the pIC50 is 8.17.
On to `Cc1ccc2nc(C(=O)N3CCC4(CC3)CC4CNC(=O)c3cc4ccncc4o3)cn2c1` (stereo not drawn) [Example 315, N-[[6-(6-methylimidazo[1,2-a]pyridine-2-carbonyl)-6-azaspiro[2.5]octan-2-yl]methyl]furo[2,3-c]pyridine-2-carboxamide], for which the pIC50 is 6.98.
In the case of `O=C(NCC1CC12CCN(C(=O)c1cnn3ccccc13)CC2)c1cc2ccncc2o1` (stereo not drawn) [Example 316, N-[[6-(pyrazolo[1,5-a]pyridine-3-carbonyl)-6-azaspiro[2.5]octan-2-yl]methyl]furo[2,3-c]pyridine-2-carboxamide] it was 5.70; in that of `CC(C)c1oncc1C(=O)N1CCC2(CC1)CC2CNC(=O)c1cc2ccncc2o1` (stereo not drawn) [Example 318, N-[[6-(5-isopropylisoxazole-4-carbonyl)-6-azaspiro[2.5]octan-2-yl]methyl]furo[2,3-c]pyridine-2-carboxamide], 5.70; in that of `CC(C)Cc1cc(C(=O)N2CCC3(CC2)CC3CNC(=O)c2cc3ccncc3o2)[nH]n1` (stereo not drawn) [Example 319, N-[[6-(3-isobutyl-1H-pyrazole-5-carbonyl)-6-azaspiro[2.5]octan-2-yl]methyl]furo[2,3-c]pyridine-2-carboxamide], 7.26.
As to `O=C(NCC1CC12CCN(C(=O)c1cn3cccnc3n1)CC2)c1cc2ccncc2o1` (stereo not drawn) [Example 320, N-[[6-(imidazo[1,2-a]pyrimidine-2-carbonyl)-6-azaspiro[2.5]octan-2-yl]methyl]furo[2,3-c]pyridine-2-carboxamide], the pIC50 was 6.26.
As for `O=C(NCC1CC12CCN(C(=O)c1cnn3cccnc13)CC2)c1cc2ccncc2o1` (stereo not drawn) [Example 321, N-[[6-(pyrazolo[1,5-a]pyrimidine-3-carbonyl)-6-azaspiro[2.5]oclan-2-yl]methyl]furo[2,3-c]pyridine-2-carboxamide], the pIC50 is 5.70.
To `CC(C)(C)c1cc(C(=O)N2CCC3(CC2)CC3CNC(=O)c2cc3ccncc3o2)[nH]n1` (stereo not drawn) [Example 322, N-[[6-(3-tert-butyl-1H-pyrazole-5-carbonyl)-6-azaspiro[2.5]octan-2-yl]methyl]furo[2,3-c]pyridine-2-carboxamide] belongs 7.82.
Consider `CC(C)c1cc(C(=O)N2CCC3(CC2)CC3CNC(=O)c2cc3ccncc3o2)n[nH]1` (stereo not drawn) [Example 323, N-[[6-(5-isopropyl-1H-pyrazole-3-carbonyl)-6-azaspiro[2.5]octan-2-yl]methyl]furo[2,3-c]pyridine-2-carboxamide], for which the pIC50 was 5.70.
`CC(C)c1n[nH]cc1C(=O)N1CCC2(CC1)CC2CNC(=O)c1cc2ccncc2o1` (stereo not drawn) [Example 324, N-[[6-(3-isopropyl-1H-pyrazole-4-carbonyl)-6-azaspiro[2.5]octan-2-yl]methyl]furo[2,3-c]pyridine-2-carboxamide]: the pIC50 was 6.96.
To `CC(C)n1nccc1C(=O)N1CCC2(CC1)CC2CNC(=O)c1cc2ccncc2o1` (stereo not drawn) [Example 325, N-[[6-(2-isopropylpyrazole-3-carbonyl)-6-azaspiro[2.5]octan-2-yl]methy]furo[2,3-c]pyridine-2-carboxamide] belongs 7.61.
In the case of `CCc1cc(C(=O)N2CCC3(CC2)CC3CNC(=O)c2cc3ccncc3o2)n(C)n1` (stereo not drawn) [Example 326, N-[[6-(5-ethyl-2-methyl-pyrazole-3-carbonyl)-6-azaspiro[2.5]octan-2-yl]methyl]furo[2,3-c]pyridine-2-carboxamide], the pIC50 is 7.96.
To `O=C(NCC1CC12CCN(C(=O)c1cc(C3CC3)on1)CC2)c1cc2ccncc2o1` (stereo not drawn) [Example 327, N-[[6-(5-cyclopropylisoxazole-3-carbonyl)-6-azaspiro[2.5]octan-2-yl]methyl]furo[2,3-c]pyridine-2-carboxamide] belongs 7.11; to `O=C(NCC1CC12CCN(C(=O)c1cnoc1C1CC1)CC2)c1cc2ccncc2o1` (stereo not drawn) [Example 328, N-[[6-(5-cyclopropylisoxazole-4-carbonyl)-6-azaspiro[2.5]octan-2-yl]methyl]furo[2,3-c]pyridine-2-carboxamide], 7.08; to `Cc1n[nH]c(C)c1C(=O)N1CCC2(CC1)CC2CNC(=O)c1cc2ccncc2o1` (stereo not drawn) [Example 329, N-[[6-(3,5-dimethyl-1H-pyrazole-4-carbonyl)-6-azaspiro[2.5]octan-2-yl]methyl]furo[2,3-c]pyridine-2-carboxamide], 7.26.
In the case of `Cc1c(C(=O)N2CCC3(CC2)CC3CNC(=O)c2cc3ccncc3o2)cnn1C` (stereo not drawn) [Example 330, N-[[6-(1,5-dmiethylpyrazole-4-carbonyl)-6-azaspiro[2.5]octan-2-yl]methyl]furo[2,3-c]pyridine-2-carboxamide] it was 6.80.
In the case of `Cc1ncoc1C(=O)N1CCC2(CC1)CC2CNC(=O)c1cc2ccncc2o1` (stereo not drawn) [Example 331, N-[[6-(4-methyloxazole-5-carbonyl)-6-azaspiro[2.5]octan-2-yl]methyl]furo[2,3-c]pyridine-2-carboxamide] it was 8.15; in that of `O=C(NCC1CC12CCN(C(=O)c1c[nH]nc1C1CC1)CC2)c1cc2ccncc2o1` (stereo not drawn) [Example 332, N-[[6-(3-cyclopropyl-1H-pyrazole-4-carbonyl)-6-azaspiro[2.5]oetan-2-yl]methyl]furo[2,3-c]pyridine-2-carboxamide], 7.47; in that of `O=C(NCC1CC12CCN(C(=O)c1n[nH]c3c1CCC3)CC2)c1cc2ccncc2o1` (stereo not drawn) [Example 333, N-[[6-(1,4,5,6-tetrahydrocyclopenta[c]pyrazole-3-carbonyl)-6-azaspiro[2.5]octan-2-yl]methyl]furo[2,3-c]pyridine-2-carboxamide], 8.17.
`Cc1nc(C(=O)N2CCC3(CC2)CC3CNC(=O)c2cc3ccncc3o2)c(C)o1` (stereo not drawn) [Example 334, N-[[6-(2,5-dimethyloxazole-4-carbonyl)-6-azaspiro[2.5]octan-2-yl]methyl]furo[2,3-c]pyridine-2-carboxamide]: the pIC50 is 7.25.
In the case of `Cc1nn(C)cc1C(=O)N1CCC2(CC1)CC2CNC(=O)c1cc2ccncc2o1` (stereo not drawn) [Example 335, N-[[6-(1,3-dimethylpyrazole-4-carbonyl)-6-azaspiro[2.5]octan-2-yl]methyl]furo[2,3-c]pyridine-2-carboxamide] it was 6.23.
For `O=C(NCC1CC12CCN(C(=O)c1cnco1)CC2)c1cc2ccncc2o1` (stereo not drawn) [Example 336, N-[[6-(oxazole-5-carbonyl)-6-azaspiro[2.5]octan-2-yl]methyl]furo[2,3-c]pyridine-2-carboxamide], the pIC50 is 7.20.
For the molecule `O=C(NCC1CC12CCN(C(=O)c1cnoc1)CC2)c1cc2ccncc2o1` (stereo not drawn) [Example 337, N-[[6-(isoxazole-4-carbonyl)-6-azaspiro[2.5]octan-2-yl]methyl]furo[2,3-c]pyridine-2-carboxamide], the pIC50 was 7.64.
